Measured values published in paper PMC3652823 (PLoS ONE, 2013).
Like-named read-outs stand apart in the source and are kept apart here.

Columns and labels:
[1] = rat, in vivo, po; cited from earlier work
[2] = rat, in vivo, po, cited from earlier work
in vivo = conditions: male, SD, rat, po
protein kinase C (PKCα) = target: protein kinase C (PKCα); parameters: method as in earlier work; conditions: read-out: IC50, inhibition of protein kinase C (PKCα); cited from earlier work
[3] = parameters: method as in Gao et al. (2008) [16]; conditions: in situ loop method in rats; ref Gao et al. (2008) [16]; cited from earlier work
[4] = system: influenza virus strain, A/PR8/34(H1N1); assay: Antiviral effect of serum after oral administration on influenza virus in MDCK cells (MTT); type: cell-based; conditions: COS 25 mg/kg, ribavirin 20 mg/kg, MTT after 48 h
[5] = rat, in vivo, po
Caco-2 cell monolayers = type: in vitro ADME, human
Experimental: Caco-2 cells were cultured in high glucose DMEM with 10% fetal bovine serum, 1% nonessential amino acids. Cells were cultured in a humidified atmosphere of 5% CO2 at 37°C. After reaching 80% confluens, Caco-2 cells were harvested with 0.05% trypsin-EDTA solution and seeded on top of CC inserts in 6-well plates, which has a surface area of 4.2 cm^2, at a density of 1.0×10^5 cells/cm^2. The protocols for cell culture in Transwell inserts were similar to those described previously.
Hank’s balanced salt solution (HBSS) was used as the transport buffer for the transport study in Caco-2 cell monolayer model. It was prepared by dissolving 9.5 grams of commercial available HBSS powder in 1000 mL water. The pH value of the buffer was adjusted to pH 6.0 by 85% of phosphoric acid.
Cell culture experiments were described previously. Briefly, after culture medium was aspirated, the cell monolayers were washed three times with blank HBSS. The transepithelial electrical resistance (TEER) values of cell monolayers were measured, which were more than […]. The monolayers were incubated with the blank HBSS for 1 h with 37°C. Thereafter the incubation medium was aspirated. […] The amounts of transported compound were measured as a function of time by UPLC-MS method described previously. […] At the end of the transport experiment, integrity of the monolayer was monitored by TEER value.

GI membrane = GI membrane toxicity by morphological observation; type: in vivo, rat; conditions: rats, oral, COS 25 mg/kg
Experimental: After in vivo pharmacokinetics experiments were carried out for 8 h, the GI was wash with HBSS (pH 7.4) and the segments were removed and immersed in the 4% neutral paraform aldehyde buffer and fixed. Vertical sections were prepared, stained with hematoxylin-eosin, and examined by light microscopy. To be able to describe possible changes in the structure of the tissue, tissues were studied and evaluated for morphological changes using the following parameters: Measurement of the distance between the nucleus and the apical membrane in enterocytes with a measuring-rod. Five measurements in each villus and five villi were measured in each slide. The villi were randomly chosen and measurements were all conducted at the tips of the villi. Villus index was used for duodenum, jejunum and ileum and crypt index for colon. Measurement of height (villi) or depth (crypt) and width (one-half of height or depth) was done with a measuring-rod of five villi/crypts in each slide that were randomly chosen. Height/depth was divided with width to receive the index.

O=C(/C=C/c1ccc(O)c(O)c1)O[C@@H]1C[C@](O)(C(=O)O)C[C@@H](O)[C@H]1O [CHA, Chlorogenic acid]
T 1/2λz [1]: 3.63 h | T max [1]: 0.75 h | absolute bioavailability orally [1]: about 0.69% | T 1/2z ([2]; 60 mg/kg): 1.05 h | AUC(0-t) (in vivo): 144 ng·h/mL

C[C@@H]1O[C@@H](OC[C@H]2O[C@@H](OCCc3ccc(O)c(O)c3)[C@H](O)[C@@H](O)[C@@H]2OC(=O)/C=C/c2ccc(O)c(O)c2)[C@H](O)[C@H](O)[C@H]1O [FTA, forsythoside A]
T 1/2λz [1]: 6.72 h | T max [1]: 0.75 h | absolute bioavailability orally [1]: ~0.72% | T 1/2λz ([2]; 100 mg/kg): 1.24 h | IC50 (protein kinase C (PKCα)): 1900 nM | AUC(0-t) (in vivo): 28.5 ng·h/mL

N[C@H]1[C@H](O[C@H]2[C@H](O)[C@@H](N)[C@H](O[C@H]3[C@H](O)[C@@H](N)[C@H](O[C@H]4[C@H](O)[C@@H](N)[C@H](O[C@H]5[C@H](O)[C@@H](N)[C@H](O[C@H]6[C@H](O)[C@@H](N)C(O)O[C@@H]6CO)O[C@@H]5CO)O[C@@H]4CO)O[C@@H]3CO)O[C@@H]2CO)O[C@H](CO)[C@@H](O)[C@@H]1O (some centres unmarked) [chitosan hexamer]
increase of the bioavailability of insulin and FDs [3]: about 2.5 times

NC(=O)c1ncn([C@@H]2O[C@H](CO)[C@@H](O)[C@H]2O)n1 [ribavirin]
inhibition rate on influenza virus compared with PBS group [4]: remarkable increase

Chito-oligosaccharide [COS]
CHA AUC0-480 min ([5]; 12.5 mg/kg): 52938.0±3520.0 ng⋅min/mL | FTA AUC0-480 min ([5]; 12.5 mg/kg): 2874.7±564.9 ng⋅min/mL | CHA AUC0-480 min ([5]; 25 mg/kg): 296980.0±36456.0 ng⋅min/mL | FTA AUC0-480 min ([5]; 25 mg/kg): 6286.0±1329.7 ng⋅min/mL | CHA AUC0-480 min ([5]; 50 mg/kg): 152641.5±72581.0 ng⋅min/mL | FTA AUC0-480 min ([5]; 50 mg/kg): 3143.0±572.1 ng⋅min/mL | effect on the P app-value for FTA and CHA compared to the control group (Caco-2 cell monolayers): significant, concentration-dependent increase

Triton X-100
Nucleo-apical distance (GI membrane; duodenum, jejunum and ileum, Triton X-100 200 mg/kg, vs PBS group): remarkable decrease | villi/crypt index (GI membrane; duodenum, jejunum, ileum and colon, Triton X-100 200 mg/kg, vs PBS group): remarkable decrease | morphology of the GI membrane (HE sections: stomach, jejunum, colon) (GI membrane; Triton X-100 200 mg/kg as positive control): could cause mucosal damage seriously
